Assay [1] deals with T1, human TLR7 (Homo sapiens, UniProt Q9NYK1).
T1 construct: host or cells: HEK-Blue-hTLR7
T1 sequence (Q9NYK1 27-1049): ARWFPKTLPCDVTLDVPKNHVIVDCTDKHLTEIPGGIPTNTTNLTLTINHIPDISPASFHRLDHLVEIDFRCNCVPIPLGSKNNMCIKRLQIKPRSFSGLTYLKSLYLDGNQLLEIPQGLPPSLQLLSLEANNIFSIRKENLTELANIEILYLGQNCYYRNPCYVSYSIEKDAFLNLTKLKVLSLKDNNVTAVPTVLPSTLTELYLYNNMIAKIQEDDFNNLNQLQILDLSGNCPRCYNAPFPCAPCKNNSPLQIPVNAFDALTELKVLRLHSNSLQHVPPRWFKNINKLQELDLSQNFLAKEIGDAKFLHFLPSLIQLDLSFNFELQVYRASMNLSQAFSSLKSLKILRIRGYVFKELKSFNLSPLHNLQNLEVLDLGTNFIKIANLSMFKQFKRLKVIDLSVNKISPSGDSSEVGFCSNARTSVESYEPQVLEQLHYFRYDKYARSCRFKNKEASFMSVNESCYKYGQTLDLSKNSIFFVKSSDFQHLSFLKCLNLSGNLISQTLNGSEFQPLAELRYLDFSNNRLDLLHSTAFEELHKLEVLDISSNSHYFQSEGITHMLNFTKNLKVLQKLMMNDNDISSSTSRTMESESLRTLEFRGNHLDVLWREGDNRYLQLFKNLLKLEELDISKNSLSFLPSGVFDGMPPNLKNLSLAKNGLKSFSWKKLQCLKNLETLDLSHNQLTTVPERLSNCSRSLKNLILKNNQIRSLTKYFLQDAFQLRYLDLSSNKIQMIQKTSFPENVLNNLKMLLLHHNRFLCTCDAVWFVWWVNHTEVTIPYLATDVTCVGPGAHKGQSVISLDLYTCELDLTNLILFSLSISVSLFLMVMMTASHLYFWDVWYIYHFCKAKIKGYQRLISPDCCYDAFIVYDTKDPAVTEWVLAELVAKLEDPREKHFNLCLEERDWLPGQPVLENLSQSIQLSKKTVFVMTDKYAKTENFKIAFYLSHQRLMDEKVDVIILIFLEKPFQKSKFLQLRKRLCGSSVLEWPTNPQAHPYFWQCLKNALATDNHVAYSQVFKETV
In words: TLR7 reporter gene assay (HEK-Blue-hTLR7, NFkB/AP-1 inducible SEAP). Type of assay: cell-based. The conditions noted are these: HEK-Blue-hTLR7; read-out: EC50 in the TLR7 reporter gene assay. Here is the method: 2) TLR Stimulation Assay:
Compounds are tested for stimulation of human TLR7 and TLR8, respectively, via reporter gene expression analyzed in a cell line stably transfected with human TLR7 and TLR8, respectively, and coexpressing an NFkB/AP-1 inducible SEAP reporter gene. Stimulation with a TLR ligand leads to NFkB/AP-1 activation and upregulation and secretion of SEAP, which can be measured in the supernatant with QuantiBlue™ detection system (InvivoGen).
Cell lines used were either HEK-Blue-hTLR7 (InvivoGen #hkb-htlr7) or HEK-Blue-hTLR8 (InvivoGen #hkb-htlr8). Cells were cultured following manufacturer's instructions.
Assay: • prepare cell suspensions of each cell line with Nv=0.11×10^6 cells/ml in medium (DMEM 4.5 g/l Glucose, 2-4 mM L-glutamine+10% FBS) without antibiotics (Nv=number of living cells) • add 180 μl of the suspensions per well of a 96 well flat bottom cell culture plates (coster, #3506) • incubate the plates overnight at 37° C. and 5% CO2 • prepare samples and controls as solutions in DMSO: R848, CL075 (TLR 7/8 agonist by InvivoGen) and Guardiquimod each to a final concentration of 10 μM, ODN2006 (InvivoGen) and ODN2216 (InvivoGen) each to a final concentration 2 μM; • compounds of the invention are applied in dilution series to final concentrations of 30, 10, 3, 1, etc. μM • add 20 μl diluted compounds and controls (see above) to the wells • incubate plates for 20-24 h at 37° C. and 5% CO2 • prepare QuantiBlue™ (InvivoGen #10H19-MM) solution, following manufacturer's instructions: solubilize the powder of one pouch in 100 ml MilliQ grade water, heat at 37° C. in a water bath for about 30 min, filter the solution with a paper filter • add 100 μl prepared QuantiBlue™ solution in each well of a 96 well plate with flat bottom • add […] cell culture supernatant from the induced cells per well • incubate plates for 1 to 1.5 h at 37° C. (until an intense blue color has developed) • read OD at 620 nm with a plate reader • calculate EC50 from data points
A general note: Reporter assays use an easily measured gene product as a stand-in for the process of interest.

Assay [2] deals with cynomolgus monkeys. In words: In vivo IFN-α secretion in cynomolgus monkeys (plasma IFN-α ELISA). The conditions noted are these: cynomolgus monkey, single i.v. 30 min infusion, 0.1 mg/kg. The protocol:
In the following studies, compounds according to the invention were examined in an in vivo cynomolgus monkey model. It is evaluated whether and at which applied dose the compounds cause secretion of IFN-α.
In particular, a defined single dose of test compound was applied intravenously to cynomolgus monkeys by a thirty minute infusion. At several time points after initiation of the intravenous compound application, blood samples (0.5 mL for approximately 0.25 mL plasma) were collected from the vena cephalica antebrachii or vena saphena into K3EDTA tubes from the animals. Blood samples were stored on crushed ice prior to centrifugation. Plasma was obtained by centrifugation at 4° C. and approximately 1800 g for 10 minutes and was aliquoted into labeled micro tubes and stored frozen at −70° C. or below. Plasma samples were thawed, diluted and used for determination of IFN-α levels using an IFN-α Elisa Kit (e.g. VeriKine™ Cynomolgus/Rhesus IFN-α ELISA Kit) according to the manufacturer's instructions.
Background: An ELISA detects its analyte on a solid surface through an enzyme-linked reagent.

Each structure is given as a SMILES string.

Broadly, the EC50 is the concentration that produces a half-maximal response.

As for `CCc1nc2c(N)nc3ccccc3c2n1CCCCN(C(C)=O)C1CCOCC1` [Example 1, N-(4-(4-Amino-2-ethyl-1H-imidazo[4,5-c]quinolin-1-yl)butyl)-N-(tetrahydro-2H-pyran-4-yl)acetamide], the EC50 in assay [1] was 44 nM. Also, the “IFN-α secretion (plasma)” value in assay [2] was “up to 15,000 pg/ml”.

For the origin of these results see patent US12054485B2, “Substituted imidazoquinolines” (BIONTECH SE, priority 2017, dated 2024).
